Patent publication US8110703B2, “Retinoid derivative and pharmaceutical composition and use thereof” (Anhui Medical University, priority 2008, dated 2012)
Marks after values point to notes of the source that are not given here.

Columns and labels:
Type in all cases: cell-based
[1] = tested on: liver cancer HepG2 cells; assay: MTT cell growth and proliferation experiment, HepG2; design: key to Inhibition Rate: (control OD570 − test OD570)/control OD570, as fraction; conditions: for Inhibition Rate: fraction
Method in brief: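 After treatment, 20 ul/well of MTT (5 g/L) was added for 4 h at 37° C. The medium was then removed and 20 ul/well DMSO added to dissolve the crystals. Plates were shaken 10 min and read at 570 nm. Inhibition rate was (control OD570 − experimental OD570)/control OD570 × 100%, averaged over three experiments.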

[2] = tested on: A549 cells; assay: Differentiation index: CEA secretory volume of A549 cells; conditions: A549 culture supernatant, 10 ug/ml, 3 d, DMSO
Protocol: 1.6 Detection of Differentiation Index The cultured A549 cells are randomly divided into 6 10 μg/ml drug groups, cell control groups, solvent control groups (DMSO and ethanol) and 10 μg/ml fenretinide control groups (11 in total). The control groups and drug groups are cultured for 3 days to collect respective 3 tubes of cell culture solutions which are centrifugated at a speed of 4000 r/min for 5 min to take the supernatant and detect the CEA content of the kit by using enzyme kinetics and CEA detection.

[3] = tested on: A549 cells; assay: Cell cycle and apoptosis by flow cytometry, A549; conditions: A549, 10 μg/ml, 3 days; for Apoptosis Rate (%) / G0-G1 (%) / G2-M (%) / S %: PI flow cytometry
Protocol: 1.4 Detection of Cell Cycle and Apoptosis by Flow Cytometry A549 cells in the logarithmic phase are collected, regulated with the concentrations thereof to 8×10^7/L, inoculated in a 6-hole board, cultured in an incubator (37° C. and 5% CO2). After the cells are adhered, the culture solution is discarded, and a culture solution having drugs with the corresponding concentrations is added and divided into 10 μg/ml drug groups, 10 μg/ml fenretinide groups, cell control groups, solvent control groups (1‰ DMSO and anhydrous ethanol) (11 in total). After 3 days, each group of cells is normally digested, collected, blown into single cell suspension, washed by cold PBS twice, and re-suspend by 10 μl PBS. Fixing and member breaking agents and a PI staining solution are added according to the Coulter DNA detection kit and reacted with one another at the room temperature and out of light for 30 min for machine detection. Each sample detects 10000 cells and repeats for three times, and the data are analyzed by Analysis software for the ratio during the G0-G1, S and G2-M periods and the ratio of apoptotic cells.

[4] = tested on: HepG2 cells; assay: Cell cycle and apoptosis by flow cytometry, HepG2; conditions: for Apoptosis Rate (%) / G0-G1 (%) / G2-M (%) / S %: HepG2, flow cytometry
[5] = tested on: NB4 cells; assay: Cell cycle analysis by flow cytometer, NB4; design: S %: dose or concentration left out as unconfirmed; conditions: 72 h
Method in brief: (§1)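 NB4 and K562 cells in RPMI1640 with 10% FBS were exposed to compounds […] for 72 h. Then they were fixed in 70% cold ethanol and stained with 5 ug/ml propidium iodide for cell-cycle profiling by flow cytometry.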

[6] = tested on: K562 cells; assay: Cell cycle analysis by flow cytometer, K562; design: S %: dose or concentration left out as unconfirmed; conditions: 72 h
Method in brief: as §1

[7] = HepG2, MTT OD 570 nm, 1 ug/ml, 3 d, solvent not given
[8] = HepG2, MTT OD 570 nm, 5 ug/ml, 3 d, solvent not given
[9] = HepG2, MTT OD 570 nm, 10 ug/ml, 3 d, solvent not given
[10] = HepG2, MTT time gradient, 10 ug/ml, 1 d
[11] = HepG2, MTT time gradient, 10 ug/ml, 2 d
[12] = HepG2, MTT time gradient, 10 ug/ml, 3 d
[13] = HepG2, MTT time gradient, 10 ug/ml, 7 d
[14] = HepG2, MTT, 1 ug/ml, 3 d, solvent not given
[15] = HepG2, MTT, 5 ug/ml, 3 d, solvent not given
[16] = HepG2, MTT, 10 ug/ml, 3 d, solvent not given
[17] = HepG2, Table 5 repeat MTT, 10 ug/ml, 3 days, DMSO
[18] = HepG2, Table 5 repeat MTT, 10 ug/ml, 3 days, ethanol

Row | SMILES | OD Value (x ± s) [1, 7] | OD Value (x ± s) [1, 8] | OD Value (x ± s) [1, 9] | OD Value (x ± s) [1, 10] | Inhibition Rate [1, 10] | OD Value (x ± s) [1, 11] | Inhibition Rate [1, 11] | OD Value (x ± s) [1, 12] | Inhibition Rate [1, 12] | OD Value (x ± s) [1, 13] | Inhibition Rate [1, 13] | Inhibition Rate [1, 14] | Inhibition Rate [1, 15] | Inhibition Rate [1, 16] | CEA [2] [µg/L] | Apoptosis Rate (%) [3] [%] | G0-G1 (%) [3] [%] | G2-M (%) [3] [%] | S % [3] [%] | Apoptosis Rate (%) [4] | other results
1 | CC1=C(/C=C/C(C)=C/C=C/C(C)=C/C(=O)Nc2cccc(C(F)(F)F)c2)C(C)(C)CCC1 [Example 3a-02, (3-trifluoromethylphenyl)-(all-trans)-3,7-dimethyl-9-(2,6,6-trimethyl-1-cyclohexen-1-yl)-2,4,6,8-nonatetraenoic acid amide] | 1.19 ± 0.50 | 0.92 ± 0.27 | 0.94 ± 0.41 | 1.43 ± 0.07 | 0.17 | 0.81 ± 0.12 | 0.52 | 0.55 ± 0.03 | 0.55 | 0.32 ± 0.12 | 0.76 | 0.30 | 0.45 | 0.45 | 2.8 | 40.9 | 35.1 | 1.62 | 23.6 | 30.2* % | OD Value (x ± s) [1, 17]: 1.331 ± 0.067; Inhibition Rate [1, 17]: 0.385*; effect on the apoptosis of A549 cells (ranking in words) [3]: most greatly effects on the apoptosis of A549 cells; G0-G1 (%) [4]: 40.3%; G2-M (%) [4]: 2.71%; S % [4]: 27.9%; G1 % [5]: 45.83%; G2 % [5]: 2.87%; S % [5]: 51.30%; G1 % [6]: 39.7%; G2 % [6]: 6.0%; S % [6]: 54.2%
2 | CC1=C(/C=C/C(C)=C/C=C/C(C)=C/C(=O)Nc2cccc(OC(F)(F)F)c2)C(C)(C)CCC1 [Example 6a-02, (3-trifluoromethoxyphenyl)-(all-trans)-3,7-dimethyl-9-(2,6,6-trimethyl-1-cyclohexen-1-yl)-2,4,6,8-nonatetraenoic acid amide] | 1.38 ± 0.62 | 1.16 ± 0.38 | 0.84 ± 0.31 | 1.60 ± 0.19 | 0.07 | 1.14 ± 0.09 | 0.32 | 0.81 ± 0.12 | 0.34 | 0.49 ± 0.32 | 0.63 | 0.18 | 0.31 | 0.50 | 3.5 | 9.79 | 70.0 | 1.71 | 19.0 | 15.7* % | OD Value (x ± s) [1, 17]: 1.125 ± 0.146; Inhibition Rate [1, 17]: 0.480*; G0-G1 (%) [4]: 57.5%; G2-M (%) [4]: 2.61%; S % [4]: 25.4%; G1 % [5]: 75.47%; G2 % [5]: 5.52%; S % [5]: 19.01%; G1 % [6]: 32.2%; G2 % [6]: 10.9%; S % [6]: 56.8%
3 | CC1=C(/C=C/C(C)=C/C=C/C(C)=C/C(=O)Oc2ccc(N)cc2C(F)(F)F)C(C)(C)CCC1 [Example 4a-02, (4-amino-2-trifluoromethylphenyl)-(all-trans)-3,7-dimethyl-9-(2,6,6-trimethyl-1-cyclohexen-1-yl)-2,4,6,8-nonatetraenoate] | 1.50 ± 0.24 | 1.32 ± 0.50 | 0.86 ± 0.13 | 1.53 ± 0.27 | 0.11 | 1.36 ± 0.13 | 0.20 | 0.74 ± 0.08 | 0.46 | 0.70 ± 0.05 | 0.48 | 0.11 | 0.22 | 0.49 | 3.1 | 23.9 | 44.1 | 1.90 | 29.4 | 38.1* % | OD Value (x ± s) [1, 18]: 1.409 ± 0.090; Inhibition Rate [1, 18]: 0.349*; effect on the apoptosis of HepG2 cells (ranking in words) ([4]; HepG2): most greatly effects on the apoptosis of HepG2 cells; G0-G1 (%) [4]: 30.9%; G2-M (%) [4]: 3.20%; S % [4]: 28.5%; G1 % [5]: 52.59%; G2 % [5]: 7.68%; S % [5]: 39.73%; G1 % [6]: 33.1%; G2 % [6]: 11.5%; S % [6]: 55.4%
